We go through one molecule from patent US12643884B2, “1-(2-(4-cyclopropyl-1H-1,2,3-triazol-1-yl)acetyl)-4-hydroxypyrrolidine-2-carboxa|mide derivatives as VHL inhibitors for the treatment of anemia” (Genentech, Inc., priority 2020, dated 2026).

One data set has as its target T1, VHL (Homo sapiens, UniProt P40337).
T1 construct: expressed in transfected cells
Description: VHL nanoBRET (+Digitonin). Type of data set: cell-based. For orientation: BRET reads energy transfer from a luciferase to a nearby fluorophore.

Data set [1] deals with T2, NanoLuc VHL fusion protein stably expressed in HEK 293 cells (Homo sapiens, UniProt P40337).
T2 construct: expressed in transfected cells
Description: VHL HEK-293 BRET Assay (VHL NanoBRET Target Engagement Assay). The data set is classed as cell-based.

The target in a further data set is T3, VHL Elongin B/C complex (Homo sapiens, UniProt P40337).
T3 construct: amino acids E55-D213 of human VHL; His6 (N); TEV-protease cleavage site (N); made in house; host or cells: E. coli
Briefly: Fluorescence Polarization (FP) VHL Binding Assay. The conditions noted are these: fluorescence polarization tracer competition; geometric mean where more than one measurement. As to the method: The binding of test compounds to the VHL Elongin B/C complex is measured using a fluorescence polarization tracer competition assay. The VHL/Elongin B/C protein complex used in the assay is generated as follows. The coding region for amino acids E55-D213 of human VHL with N-terminal His6 tag with a TEV-protease cleavage site is co-expressed with Elongin B (residues M1-Q118) and Elongin C (Residues M17-C112) in E. coli. The VHL/Elongin B/C complex is purified using an affinity nickel column, anion exchange HiTrap QP HP column chromatography, and gel filtration using a Superdex 75 26/60 column. […] A VHL fluorescence polarization probe consists of a VHL ligand coupled to carboxytetramethylrhodamine (TAMRA); (2S,4R)—N-(2-(2-(3′,6′-bis(dimethylamino)-3-oxo-3H-spiro[isobenzofuran-1,9′-xanthene]-5-carboxamido)ethoxy)-4-(4-methylthiazol-5-yl)benzyl)-4-hydroxy-1-((R)-3-methyl-2-(3-methylisoxazol-5-yl)butanoyl)pyrrolidine-2-carboxamide. […] A “pre-assay” fluorescence measurement is made using an Infinite® M1000 (Tecan) plate reader (Excitation 530 nm, Emission 574 nm, Bandwidth 10 nm). […] “Post-assay” fluorescence polarization measurements are made as described for the “pre-assay” fluorescence measurement. […] The data are analyzed using Genedata Screener software and normalized to the “no VHL control” and “VHL control” (without compound). […]

Structures are written as SMILES.

T2 sequence (P40337 whole entry, the tested form may be a part): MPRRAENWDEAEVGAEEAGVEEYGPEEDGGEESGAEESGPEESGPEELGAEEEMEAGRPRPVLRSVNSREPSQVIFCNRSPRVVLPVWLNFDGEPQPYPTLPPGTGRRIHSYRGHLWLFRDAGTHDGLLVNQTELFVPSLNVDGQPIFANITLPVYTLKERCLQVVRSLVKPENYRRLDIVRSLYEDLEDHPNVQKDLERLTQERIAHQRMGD
T2 sequence (Q15370 whole entry partner, the tested form may be a part): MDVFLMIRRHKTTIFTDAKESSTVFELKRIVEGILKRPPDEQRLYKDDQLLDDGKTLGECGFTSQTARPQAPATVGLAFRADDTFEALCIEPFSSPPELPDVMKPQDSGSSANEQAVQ
T2 sequence (Q15369 whole entry partner, the tested form may be a part): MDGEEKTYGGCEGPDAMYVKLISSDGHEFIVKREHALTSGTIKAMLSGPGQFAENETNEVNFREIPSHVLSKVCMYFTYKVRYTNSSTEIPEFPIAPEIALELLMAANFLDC
T3 sequence (P40337 55-213): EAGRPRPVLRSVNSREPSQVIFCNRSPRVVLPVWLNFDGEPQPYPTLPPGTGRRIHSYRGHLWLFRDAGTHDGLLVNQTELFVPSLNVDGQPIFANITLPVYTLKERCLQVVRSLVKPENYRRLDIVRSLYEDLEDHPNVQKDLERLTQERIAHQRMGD
T3 sequence (Q15370 whole entry partner, the tested form may be a part): as the sequence (Q15370 whole entry partner, the tested form may be a part) above
T3 sequence (Q15369 17-112 partner limits assumed): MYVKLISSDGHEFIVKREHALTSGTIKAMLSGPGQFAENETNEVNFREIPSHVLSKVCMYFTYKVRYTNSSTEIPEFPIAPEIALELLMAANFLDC
T1 sequence (P40337 whole entry): as the sequence (P40337 whole entry, the tested form may be a part) above
T1 sequence (Q15370 whole entry partner): as the sequence (Q15370 whole entry partner, the tested form may be a part) above
T1 sequence (Q15369 whole entry partner): as the sequence (Q15369 whole entry partner, the tested form may be a part) above

At VHL, `CC(C)(C)[C@@H](C(=O)N1C[C@H](O)C[C@H]1C(N)=O)n1cc(C2CC2)nn1` [Final product from Example S1, (2S,4R)-1-((S)-2-(4-cyclopropyl-1H-1,2,3-triazol-1-yl)-3,3-dimethylbutanoyl)-4-hydroxypyrrolidine-2-carboxamide] showed an EC50 of 2.14 µM. In addition, the IC50 is 2 µM in data set [1] (HEK293 cells, nanoBRET, geometric mean where more than one measurement, read-out: VHL binding in cells (HEK293 nanoBRET)) and 1.17 µM on VHL Elongin B/C complex. Besides, the “Ratio cell permeability shift” value in data set [1] (ratio of nanoBRET in cells to nanoBRET +Digitonin) is on record as 1.71.

In general, EC50 refers to the midpoint of the concentration-response curve.
